The text below walks through data of patent US20220054532A1, “VETERINARY COMPOSITIONS AND METHODS OF USE THEREFOR” (priority 2019, published 2022).

What all share (format): in vivo
In test [1] the test system is dogs suffering from heart failure. Put plainly: Example 7: heart failure in dogs. As to conditions: heart failure scale 1 (few to no clinical signs) to 10 (severe); for Initial Score: day 0; for Final Score: day 90, BID. An excerpt: This example examines the ability of embodiments of the invention versus enalapril to treat heart failure.
The patient group is twenty-four dogs suffering from heart failure.
The patient group is broken into six groups of four dogs. The first group receives enalapril as the sole active agent; the second group receives a composition comprising enalapril and Lasix®; the third group receives a composition comprising HMW HA as the sole active agent; the fourth group receives a composition comprising CBD as the sole active agent; the fifth group receives a composition comprising HMW HA and CBD as the active agents; and the sixth group receives a composition comprising HMW HA, CBD, liposomal CoQ10, hawthorn berry, and ginko biloba as the active agents.
Each composition is administered for a period of ninety (90) days, BID. Each animal is evaluated on days 0 (“Initial Score”), 30, 60, and 90 (“Final Score”) of treatment. The results are averaged and characterized on a scale of 1 (few to no clinical signs of heart failure) to 10 (severe heart failure).
The following canine scores are observed and the results depicted in FIG. 7: […]

The test system of test [2] is dogs suffering from joint inflammation. Put plainly: Example 4: joint inflammation, thermal imaging (canine). As to conditions: over the inflamed joint, 60 days BID. An excerpt:
(§1) This example examines the ability of embodiments of the invention versus Cosequin® to treat joint inflammation.
(§2) The first patient group is twenty dogs suffering from joint inflammation. The second patient group is twenty cats suffering from joint inflammation. The third patient group is twenty horses suffering from joint inflammation. Each patient group is broken into five groups of four animals. The first groups receive Cosequin® as the sole active agent; the second groups receive a composition comprising HMW HA as the sole active agent; the third groups receive a composition comprising CBD as the sole active agent; the fourth groups receive a composition comprising HMW HA and CBD as the active agents; and the fifth groups receive a composition comprising HMW HA, CBD, Boswellia, and superoxide dismutase (“SOD”) as the active agents.
(§3) Each composition is administered for a period of sixty (60) days, BID. Efficacy is determined by a decrease in body temperature over the inflamed joint, as measured by thermal imaging (e.g., via Digatherm device). Thermal imaging is performed on days 0 (“Initial Score”), 15, 30, 45, and 60 (“Final Score”) of treatment.
The following canine scores are observed and the results depicted in FIG. 4a: […]

Test [3] relates to cats suffering behavior aberrations and/or anxiety. Put plainly: Example 13: behavior aberrations and anxiety, Fe-BARQ (feline, CBD Complex). As to conditions: Fe-BARQ day 0 vs 60, SID, 0 (no improvement) to 3 (marked improvement). An excerpt:
(§4) This example examines the ability of embodiments of the invention versus Clomicalm® to reduce behavior aberrations and anxiety.
The first patient group is twenty dogs suffering behavior aberrations and/or anxiety, as determined by the canine behavioral assessment and research questionnaire (“C-BARQ”). […] The second patient group is twenty cats suffering behavior aberrations and/or anxiety, as determined by the feline behavioral assessment and research questionnaire (“Fe-BARQ”).
Each group is broken into five groups of four animals. The first group receives Clomicalm® as the sole active agent; the second group receives a composition comprising HMW HA as the sole active agent; the third group receives a composition comprising CBD as the sole active agent; the fourth group receives a composition comprising HMW HA and CBD Complex as the active agents; and the fifth group receives a composition comprising HMW HA, CBD Complex, valerian root, and scutillaria as the active agents.
(§5) Each composition is administered for a period of sixty (60) days, once a day (“SID”). Owners complete the species-appropriate C-BARQ or Fe-BARQ on days 0 and 60 of treatment. The results from the overall questionnaire are averaged and characterized as no improvement (score of 0), mild improvement (score of 1), moderate improvement (score of 2), or marked improvement (score of 3).

For test [4], the system named is cats suffering from joint inflammation. Put plainly: Example 4: joint inflammation, thermal imaging (feline). As to conditions: over the inflamed joint, 60 days BID.
Description: as §1, §2, §3
The following feline scores are observed and the results depicted in FIG. 4b: […]

In test [5] the test system is dogs suffering behavior aberrations and/or anxiety. Put plainly: Example 5: behavior aberrations and anxiety, C-BARQ (canine). As to conditions: C-BARQ day 0 vs 60, SID, 0 (no improvement) to 3 (marked improvement).
Description: as §4
(§6) The first patient group is twenty dogs suffering behavior aberrations and/or anxiety, as determined by the canine behavioral assessment and research questionnaire (“C-BARQ”). See, e.g., P. Wiener et al., Use of questionnaire-based data to assess dog personality, 16 JOURNAL OF VETERINARY BEHAVIOR 81-85 (2016). The second patient group is twenty cats suffering behavior aberrations and/or anxiety, as determined by the feline behavioral assessment and research questionnaire (“Fe-BARQ”).
(§7) Each group is broken into five groups of four animals. The first group receives Clomicalm® as the sole active agent; the second group receives a composition comprising HMW HA as the sole active agent; the third group receives a composition comprising CBD as the sole active agent; the fourth group receives a composition comprising HMW HA and CBD as the active agents; and the fifth group receives a composition comprising HMW HA, CBD, valerian root, and scutillaria as the active agents.
as §5
The following canine scores are observed and the results depicted in FIG. 5a: […]

Test [6] has as its system cats suffering behavior aberrations and/or anxiety. Put plainly: Example 5: behavior aberrations and anxiety, Fe-BARQ (feline). As to conditions: Fe-BARQ day 0 vs 60, SID, 0 (no improvement) to 3 (marked improvement).
Description: as §4, §6, §7, §5
The following feline scores are observed and the results depicted in FIG. 5b: […]

The subject of test [7] is horses suffering from joint inflammation. Put plainly: Example 4: joint inflammation, thermal imaging (equine). As to conditions: over the inflamed joint, 60 days BID.
Description: as §1, §2, §3
The following equine scores are observed and the results depicted in FIG. 4c: […]

Regarding `C=C(C)[C@@H]1CCC(C)=C[C@H]1c1c(O)cc(CCCCC)cc1O` [CBD Alone, 2-[(1R,6R)-3-methyl-6-prop-1-en-2-ylcyclohex-2-en-1-yl]-5-pentylbenzene-1,3-diol], the “Initial Score” value in test [1] worked out at 8. The “Final Score” value in test [1] is on record as 4. Further, the “Reduction in Temperature (° F.)” value in test [2] amounted to 1.7 ° F; in test [4], 2.0 ° F; in test [7], 1.6 ° F. Further, the “Improvement Score” value in test [3] turned out to be 1.8; in test [5] it was 2; in test [6], 1.8.
As for hyaluronic acid [HMW HA Alone], the “Initial Score” value in test [1] stood at 8. Further, in test [1], the “Final Score” value came to 4. Moreover, the “Reduction in Temperature (° F.)” value is 1.9 ° F in test [2], 2.3 ° F in test [4] and 2.1 ° F in test [7]. Also, the “Improvement Score” value in test [3], in test [5] and in test [6] was 1 each time.
